Measurements: patent US20200147158A1, “SANGHUANGPORUS SANGHUANG STRAINS AND THEIR PRODUCTS, EXTRACTS AND APPLICATIONS” (FOOD INDUSTRY RESEARCH AND DEVELOPMENT INSTITUTE, priority 2018, published 2020)

Legend:
Type in all cases: cell-based
[1] = biological target: T1, ER-β (Homo sapiens, UniProt Q92731); assay: Evaluation of SERMs activity: ERβ/pERE-TA-SEAP reporter gene assay in transfected CV-1 cells; settings: for ER Subtype Activity ER-β: ratio to untreated cells (Medium only); for ER-β/ER-α: ratio of relative ER-β to ER-α activity
T1 construct: expressed in transfected cells; host or cells: CV-1 (Cercopithecus aethiops kidney cells)
T1 sequence (Q92731 whole entry, species assumed): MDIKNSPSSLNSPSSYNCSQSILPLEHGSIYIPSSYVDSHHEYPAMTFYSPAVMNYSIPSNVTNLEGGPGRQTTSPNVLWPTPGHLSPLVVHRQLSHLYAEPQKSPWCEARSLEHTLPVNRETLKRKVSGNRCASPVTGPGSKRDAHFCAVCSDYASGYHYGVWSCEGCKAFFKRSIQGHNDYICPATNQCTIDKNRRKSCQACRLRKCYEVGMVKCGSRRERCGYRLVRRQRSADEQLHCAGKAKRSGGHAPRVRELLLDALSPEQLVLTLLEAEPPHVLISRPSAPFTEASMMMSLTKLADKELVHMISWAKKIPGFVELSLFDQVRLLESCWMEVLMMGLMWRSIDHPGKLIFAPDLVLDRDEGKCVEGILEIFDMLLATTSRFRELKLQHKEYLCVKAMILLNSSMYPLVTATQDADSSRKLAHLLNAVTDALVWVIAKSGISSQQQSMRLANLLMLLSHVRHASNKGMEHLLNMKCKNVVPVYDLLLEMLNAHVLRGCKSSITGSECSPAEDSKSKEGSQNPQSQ
Method: (§1) CV-1 cells (Cercopithecus aethiops kidney cells) were grown at a confluence of 70-80% and were harvested in a cell suspension at a concentration of 5×10^4 cell/ml. The cell suspensions were added to each well (100 μl/well) of 96-well plate and the 96-well plate was incubated at 37° C., 5% CO2 incubator overnight.
(§2) 500 μl jetPRIME® buffer. 5 μg pERE-TA-SEAP and 5 μg ERα DNA plasmid (or ERβ DNA plasmid) were mixed in 1.5 ml eppendorf, then 20 μl jetPRIME® Transfection Reagent and 1.5 ml medium were added. The DNA mixtures were added to each well of 96-well plate (20 μl) and the 96-well plate was incubated at 37° C., 5% CO2 incubator for 4 hours.
(§3) The supernatant solutions were removed from each well of 96-well plate, then 90 μl charcoal-treated. FBS medium without phenol red were added to each well of 96-well plate. The samples to be tested were added to the wells of 96-well plate, which was incubated in 37° C., 5% CO2 incubator for 48 to 72 hours. The cells were harvested for the subsequent reporter gene assay and cell toxicity assay.
25 μl cell culture supernatants were collected from the 96-well plate and, then added to a new luminescence microplate, which was incubated at 65° C. water bath for 30 minutes to remove the activity endogenous alkaline phosphatase, and was placed on ice for 5 minutes and was centrifuged (1,000 rpm) for one minute. 25 μl PhosphaLight™ assay buffers were added at room temperature for 5 minutes and 25 μl CSPD (Disodium 3-(4-methoxyspiro {1,2-dioxetane-3,2′-(5′-chloro)tricyclo [3.3 1.13,7]decan}-4-yl phenyl phosphate)-containing Phospha-Light™ reaction buffers were added at room temperature for 20 minutes. The luminescence microplate was placed in Victor™ Light 1420 Luminescence Counter and the SEAP enzyme activities were measured.

[2] = biological target: T2, Estrogen Receptor (ER) (Homo sapiens, UniProt P03372); assay: ER total activity assay (pERE-TA-SEAP reporter in MCF-7 cells); settings: for ER activity (FIG. 1, in words): 2 μg/ml, 5 μg/ml and 10 μg/ml; for ER activity compared with 17-β Estradiol (positive control), FIG. 1, in words: MCF-7 cells
T2 construct: endogenous in cells; host or cells: MCF-7
T2 sequence (P03372 1-595): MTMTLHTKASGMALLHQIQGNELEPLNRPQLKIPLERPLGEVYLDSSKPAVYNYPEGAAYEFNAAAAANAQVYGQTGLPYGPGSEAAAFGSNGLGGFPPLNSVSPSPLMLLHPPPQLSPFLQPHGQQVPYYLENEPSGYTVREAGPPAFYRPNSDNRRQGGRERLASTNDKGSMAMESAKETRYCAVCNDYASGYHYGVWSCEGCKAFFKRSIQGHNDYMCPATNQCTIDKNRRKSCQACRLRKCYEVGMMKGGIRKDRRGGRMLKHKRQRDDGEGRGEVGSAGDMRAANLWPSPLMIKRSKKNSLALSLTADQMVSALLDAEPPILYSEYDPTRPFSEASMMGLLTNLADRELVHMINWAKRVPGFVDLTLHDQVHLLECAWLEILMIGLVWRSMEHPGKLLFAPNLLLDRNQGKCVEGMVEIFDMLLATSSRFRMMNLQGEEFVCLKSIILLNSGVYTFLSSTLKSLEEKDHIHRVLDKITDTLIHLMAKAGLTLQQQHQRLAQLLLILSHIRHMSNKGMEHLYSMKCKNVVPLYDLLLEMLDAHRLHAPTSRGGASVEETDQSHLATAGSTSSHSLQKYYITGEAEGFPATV
Method: ER is a ligand-activated enhancer protein that is a member of the steroid/nuclear receptor superfamily. […] Secreted alkaline phosphatase (SEAP) is a reporter widely used to study promoter activity or gene expression.
The 1 ml 0.05% trypsin-EDTA solution was added to 80% confluence (on Day 5, if cells were in log phase) of MCF-7 cells in a T75 flask at 37° C. for 5 minutes. After the cells were detached, 5 ml charcoal-treated FBS-containing medium were added to suspend the cells. The charcoal-treated FBS-containing PBS medium were added 2 ml cell suspensions to the final volume of 10 ml of a mixture. The mixture was dispensed into each well (100 μl/well, 2×10^4 cells/well) of a 96-well plate by 8-channel pipette, and the 96-well plate was placed at 37° C. and 5% CO2 overnight to obtain about 70% confluence.
To transfect cells to express the ERE, a transfection mixture was prepared. TransIT®-LT1 Transfection Reagent is a broad spectrum reagent that provides high efficiency plasmid DNA delivery in many mammalian cell types including primary cells. Specifically, 1 ml Opti-MEM®, 14 μl TransIT®-LT1 Transfection Reagent and 5 μg pERE-TA-SEAP were added into a 1.5 ml Eppendorf and let the transfection mixture stand for 15-30 minutes.
Transfection mixture containing TransIT-DNA was dispensed into each well (10 μl/well) of a 96-well plate, and the 96-well plate was placed at 37° C. and 5% CO2 for 24 hours. The supernatants were removed from the 96-well plate using 8-channel pipette.
(§4) 25 μl cell culture supernatants were collected from the 96-well plate and, then added to a new luminescence microplate, which was incubated at 65° C. water bath for 30 minutes to remove the activity endogenous alkaline phosphatase, and was placed on ice for 5 minutes and was centrifuged (1,000 rpm) for one minute.

[3] = biological target: T3, ER-α (Homo sapiens, UniProt P03372); assay: Evaluation of SERMs activity: ERα/pERE-TA-SEAP reporter gene assay in transfected CV-1 cells; settings: 25 μg/mL, ratio to untreated cells (Medium only)
T3 construct: expressed in transfected cells; host or cells: CV-1 (Cercopithecus aethiops kidney cells)
T3 sequence (P03372 1-595): T2 sequence (P03372 1-595)
Method: as §1, §2, §3, §4

SMILES | ER Subtype Activity ER-β ([1]; 200 nM) | ER-β versus ER-α activity (in words) [1] | ER-β/ER-α ([1]; 25 μg/mL) | ER Subtype Activity ER-β ([1]; 25 μg/mL) | ER activity (FIG. 1, in words) [2] | ER activity compared with 17-β Estradiol (positive control), FIG. 1, in words [2] | ER Subtype Activity ER-α [3]
C[C@]12CC[C@@H]3c4ccc(O)cc4CC[C@H]3[C@@H]1CC[C@@H]2O [17-β Estradiol (E2), 17-β Estradiol, reference compound] | 3.70 ± 0.45 | – | – | – | – | – | –
C=C1CCCC(C)(C)C1CC/C(C)=C/C(=O)O (stereo not shown) [Compound 1, (E)-5-(2,2-dimethyl-6-methylenecyclohexyl)-3-methylpent-2-enoic acid] | – | superior ER-β activity over ER-α activity | 3.1 | 3.80 ± 0.11 | significant ER activity | superior ER activity over 17-β Estradiol | 1.21 ± 0.53
C=C1CCCC(C)(C)[C@@H]1/C=C/C(C)=C/C(=O)O [Compound 2, (+)-(2E,-4E)-5-((S)-2,2-dimethyl-6-methylenecyclohexyl)-3-methylpenta-2,4-dienoic acid] | – | superior ER-β activity over ER-α activity | 2.2 | 2.53 ± 0.77 | significant ER activity | superior ER activity over 17-β Estradiol | 1.16 ± 0.16
